In ChEMBL document CHEMBL3856252, “Truncated Autoinducing Peptides as Antagonists of Staphylococcus lugdunensis Quorum Sensing” (J Med Chem, 2016):
pIC50: −log10 of the molar value. Where a SMILES comes first, the peptide text is derived from it.

Key:
[1] = Competitive inhibition of Staphylococcus aureus RN9222 quorum sensing system AgrC-1 by colorimetric analysis
[2] = Competitive inhibition of Staphylococcus aureus RN9372 quorum sensing system AgrC-2 by colorimetric analysis
[3] = Competitive inhibition of Staphylococcus aureus quorum sensing system AgrC-3 by colorimetric analysis
[4] = Inhibition of Staphylococcus aureus RN6390B quorum sensing system AgrC-1 using cephalosporin/nitrocefin as substrate by P3 reporter assay
[5] = Competitive inhibition of Staphylococcus aureus MW2 quorum sensing system AgrC-3 after 24 hrs in presence of mouse IgG2a by YFP reporter gene assay
[6] = Competitive inhibition of Staphylococcus aureus SA502A quorum sensing system AgrC-2 after 24 hrs in presence of mouse IgG2a by YFP reporter gene assay

For `CC(=O)N[C@H]1CSC(=O)[C@H](Cc2ccccc2)NC(=O)[C@H](Cc2ccc(O)cc2)NC(=O)[C@H](C)NC(=O)[C@H](CC(N)=O)NC1=O` (HELM PEPTIDE1{[ac].C.N.A.Y.F}$PEPTIDE1,PEPTIDE1,2:R3-6:R2$$$V2.0), the pIC50 [1] was 6.42, the pIC50 [2] was 6.38 and the pIC50 [3] was 7.40.

`CC[C@H](C)[C@@H]1NC(=O)[C@H](Cc2ccccc2)NC(=O)[C@H](CC(=O)O)NC(=O)[C@@H](NC(=O)[C@@H](NC(=O)[C@H](CO)NC(=O)[C@@H](N)Cc2ccc(O)cc2)[C@@H](C)O)CSC(=O)[C@H](CCSC)NC1=O` (HELM PEPTIDE1{Y.S.T.C.D.F.I.M}$PEPTIDE1,PEPTIDE1,4:R3-8:R2$$$V2.0) showed a pIC50 [4] of 7.70.

Work on `CC(=O)N[C@H]1CSC(=O)[C@H](Cc2ccccc2)NC(=O)[C@H](Cc2ccc(O)cc2)NC(=O)[C@H](CO)NC(=O)[C@H](C)NC1=O` (HELM PEPTIDE1{[ac].C.A.S.Y.F}$PEPTIDE1,PEPTIDE1,2:R3-6:R2$$$V2.0) yielded a pIC50 [5] of 7.89 and a pIC50 [6] of 6.80.
